Laboratory results reported in patent publication EP1209147A1, “CARBOXYLIC ACID DERIVATIVES AND ADHESION MOLECULE INHIBITORS CONTAINING THE SAME AS THE ACTIVE INGREDIENT” (TORAY INDUSTRIES, INC., priority 1999, dated 2001).

How the values were obtained:
[1] = target: VLA-4-IgG chimeric protein (Homo sapiens, UniProt P05556+P13612); assay: Inhibition of binding between CS-1 peptide and VLA-4-IgG chimeric protein; details: binding of VLA-4-IgG chimeric protein to immobilized CS-1 peptide; compound preincubated 20 minutes; read-out: Inhibition Activity(IC50 : nM)
VLA-4-IgG chimeric protein, sequence (P13612 with tags, fused parts or gaps limits assumed): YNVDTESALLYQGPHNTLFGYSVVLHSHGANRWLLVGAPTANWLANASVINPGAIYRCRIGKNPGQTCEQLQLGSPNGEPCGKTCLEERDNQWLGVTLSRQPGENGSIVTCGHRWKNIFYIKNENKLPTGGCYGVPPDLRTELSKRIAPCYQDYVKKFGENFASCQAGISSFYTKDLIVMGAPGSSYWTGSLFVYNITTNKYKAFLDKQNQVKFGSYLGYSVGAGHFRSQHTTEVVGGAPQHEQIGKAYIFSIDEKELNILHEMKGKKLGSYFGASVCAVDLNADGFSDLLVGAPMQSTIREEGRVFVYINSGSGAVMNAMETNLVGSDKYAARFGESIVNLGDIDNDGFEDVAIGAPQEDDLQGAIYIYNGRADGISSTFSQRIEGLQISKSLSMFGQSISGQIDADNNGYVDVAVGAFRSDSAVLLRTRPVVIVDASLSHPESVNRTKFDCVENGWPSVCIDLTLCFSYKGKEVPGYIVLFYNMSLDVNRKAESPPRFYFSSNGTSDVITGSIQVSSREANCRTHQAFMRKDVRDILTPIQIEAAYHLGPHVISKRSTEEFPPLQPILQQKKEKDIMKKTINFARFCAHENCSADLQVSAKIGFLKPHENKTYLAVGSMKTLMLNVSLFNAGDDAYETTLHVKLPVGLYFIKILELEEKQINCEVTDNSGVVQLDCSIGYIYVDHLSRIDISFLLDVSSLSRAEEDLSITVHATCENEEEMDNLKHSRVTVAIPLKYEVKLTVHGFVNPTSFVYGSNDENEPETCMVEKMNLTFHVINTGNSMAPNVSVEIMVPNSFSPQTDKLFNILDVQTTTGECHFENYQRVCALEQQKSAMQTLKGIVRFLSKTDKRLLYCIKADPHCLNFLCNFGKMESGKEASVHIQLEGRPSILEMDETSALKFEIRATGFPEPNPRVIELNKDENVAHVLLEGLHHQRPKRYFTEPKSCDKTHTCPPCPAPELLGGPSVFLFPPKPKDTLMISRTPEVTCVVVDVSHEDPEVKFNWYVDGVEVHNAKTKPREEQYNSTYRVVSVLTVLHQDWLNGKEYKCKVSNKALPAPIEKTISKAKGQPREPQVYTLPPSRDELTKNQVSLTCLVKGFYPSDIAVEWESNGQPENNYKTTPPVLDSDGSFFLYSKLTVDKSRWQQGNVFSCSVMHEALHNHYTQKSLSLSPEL
VLA-4-IgG chimeric protein, sequence (P05556 with tags, fused parts or gaps limits assumed): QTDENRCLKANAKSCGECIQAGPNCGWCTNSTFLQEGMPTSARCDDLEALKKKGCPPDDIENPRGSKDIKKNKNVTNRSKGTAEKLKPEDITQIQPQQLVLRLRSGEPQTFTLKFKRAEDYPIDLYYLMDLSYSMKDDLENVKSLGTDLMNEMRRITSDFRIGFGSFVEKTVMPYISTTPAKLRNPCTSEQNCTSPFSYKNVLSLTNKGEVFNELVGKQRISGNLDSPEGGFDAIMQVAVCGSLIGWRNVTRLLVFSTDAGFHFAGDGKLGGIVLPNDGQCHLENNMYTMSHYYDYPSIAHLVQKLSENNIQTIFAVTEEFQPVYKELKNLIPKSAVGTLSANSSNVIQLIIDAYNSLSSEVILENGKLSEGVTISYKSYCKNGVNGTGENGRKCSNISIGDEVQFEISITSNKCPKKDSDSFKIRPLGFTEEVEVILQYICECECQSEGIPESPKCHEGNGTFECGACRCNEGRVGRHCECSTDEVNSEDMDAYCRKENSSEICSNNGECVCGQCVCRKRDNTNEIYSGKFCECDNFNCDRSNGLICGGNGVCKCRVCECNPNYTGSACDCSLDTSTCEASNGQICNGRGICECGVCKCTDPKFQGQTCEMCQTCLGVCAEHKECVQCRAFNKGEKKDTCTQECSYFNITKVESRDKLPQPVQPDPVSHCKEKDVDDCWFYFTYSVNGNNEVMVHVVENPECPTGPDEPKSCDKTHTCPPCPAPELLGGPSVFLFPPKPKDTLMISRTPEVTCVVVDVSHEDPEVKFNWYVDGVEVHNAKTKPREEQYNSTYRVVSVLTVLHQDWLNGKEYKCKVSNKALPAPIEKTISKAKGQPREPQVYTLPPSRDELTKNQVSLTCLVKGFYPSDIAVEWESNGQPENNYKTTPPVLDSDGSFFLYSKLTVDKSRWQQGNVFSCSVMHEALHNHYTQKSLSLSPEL
Description: The adhesion-inhibition activity of the compound of the present invention against VLA-4 may be examined by using an adhesion assay system in which the adhesion between VLA-4-expressing cells such as Ramos cells and Jurkat cells, and fibronectin or a fragment thereof, e.g., a peptide containing CS-1 sequence (Gly Pro Glu Ile Leu Asp Val Pro Ser Thr) (hereinafter referred to as "CS-1 peptide") immobilized on an immunoplate is measured. Alternatively, a binding assay system in which the binding of the VLA-4 protein to the fibronectin or a fragment thereof such as CS-1 peptide immobilized on an immunoplate is measured may be employed. In the present invention, the inhibition assay of the compound is preferably measured by a binding assay system which measures the binding between a chimeric protein of VLA-4 and immunoglobulin (VLA-4-IgG chimeric protein) and CS-1 peptide (Japanese patent application No. H9-234544), although the method of measuring the inhibition activity is not restricted to this method. The term "VLA-4-IgG chimeric protein" herein means the heterodimer composite molecule in which a chimeric protein between α4 of VLA-4 and immunoglobulin (hereinafter referred to as "VLAα4·IgG chimeric protein), and a chimeric protein between β1 of VLA-4 and immunoglobulin (hereinafter referred to as "VLAβ1·IgG chimeric protein) are associated. As the immunoglobulin, although heavy chain or light chain of IgG, IgM or the like may be employed, in the present invention, IgG1 heavy chain is used. When testing the inhibition activity of the compound, it is preferred to preliminarily mix the VLA-4-IgG chimeric protein and the test compound.
Effects of Compounds for Inhibition of Binding Between CS-1 Peptide and VLA-4-IgG
A conjugate between a peptide (Gys Leu His Gly Pro Glu Ile Leu Asp Val Pro Ser Thr) containing CS-1 sequence and rabbit IgG (Sigma) was prepared by the reported method (Humphries, M.J. et al. J. Biol.Chem., 262, 6886-6892 (1987)). The obtained conjugate was diluted with phosphate buffer (hereinafter referred to as "PBS(-)", NISSUI) and the resulting solution was placed in wells of a 96-well immunoplate (NUNC) in an amount of 100 µl/well, followed by leaving the solution to stand at 4°C for 16 hours to immobilize the conjugate.
Then each well was washed twice with PBS(-), and a PBS solution containing 1% BSA heat-treated at 80°C for 10 minutes was placed in each well in an amount of 300 µl/well. The immunoplate was left to stand at 4°C for 3 hours, and then the solution in each well was removed by aspiration.
After preliminarily allowing each compound to react with VLA-4-IgG chimeric protein (100 µl) at room temperature for 20 minutes, the resulting solution was allowed to react with CS-1 peptide in each well at 30°C for 3 hours. Thereafter, non-bound VLA-4-IgG chimeric protein was removed by aspiration and each well was washed twice with 0.1% BSA-containing TBS buffer (150 mM NaCl,25 mM Tris-HCI, 1 mM MnCl2 pH 7.4). To the bound VLA-4-IgG chimeric protein, biotin-labeled anti-human IgG antibody (Vector) as an primary antibody was added, and then avidin-labeled horse radish peroxidase (Sigma) as a secondary antibody was added, and the reaction was allowed to occur. After the reaction, o-phenylenediamine as a substrate was added to color the solution, and the absorbance at 490 nm was measured. From the absorbance, the binding-inhibition activity of each test compound was determined.

Auricular Edema Model = assay: Auricular edema model (IgE anti-DNP passive sensitization, DNFB induction); assay type: in vivo, BLAB/c mouse
Description: To each BLAB/c mouse (female, 7 weeks old, JAPAN CHARLES RIVER), mouse IgE anti-DNP antibody (5 mg/kg, SEIKAGAKU CORPORATION) was intravenously administered to passively sensitize the mouse. Twenty four hours later, 20 µl of 0.38% 2,4- dinitrofluorobenzene (DNFB, Aldrich) dissolved in acetone:olive oil (4:1) was applied to the auricle of the sensitized mouse to induce inflammation. The thickness of the auricle was measured until 24 hours after the induction with Digimatic Indicator (Mitutoyo) and the ear swelling rate was calculated according to the following equation: Ear Swelling Rate (%) = (A - B)/B x 100 [formula] • A: Thickness of right auricle at 24 hours after induction • B: Thickness of right auricle before induction
Twenty four hours after the induction, the auricle was cut off and fixed with formalin. After the fixation, continuous sections of the auricle were prepared and stained by Luna staining. The number of eosinophils in each section was counted and the total of them was defined as the number of eosinophils accumulated in the auricle.
Compound No. 140 used as the test compound was dissolved in physiological saline and the solution was intravenously administered totally 3 times, i.e., at the time of sensitization, at 8 hours and 24 hours after sensitization, at a dose of 400 mg/kg per each time. Further, to examine the effect of the compound when applied to the auricle, the compound was dissolved in ethanol, and the solution was applied to the auricle totally twice, i.e., at 8 hours after sensitization and at 1 hour before the induction, at a dose of 0.3 mg/ear. To the background group and the control group, physiological saline was intravenously administered and ethanol was applied, respectively. The experiment was carried out using 4 to 6 mice in each group. The results are shown in terms of mean ± standard error.
Twenty four hours after the induction, the auricle was cut off and fixed with formalin. After the fixation, continuous sections of the auricle were prepared and stained by Luna staining. The number of eosinophils in each section was counted. Compound No. 143 used as the test compound was dissolved in physiological saline and the solution was topically or systemically administered totally 3 times, i.e., at the time of sensitization, at 8 hours and 24 hours after sensitization. The experiment was carried out using 4 to 6 mice in each group. The results are shown in terms of mean ± standard error.

Question: `CC(C)(C)CC(=O)N[C@@H](CSSC[C@H](NC(=O)CC(C)(C)C)C(=O)O)C(=O)O` [Example 140, 3-((2(R)-carboxy-2(R)-(3,3-dimethylbutanoylamino)ethyl)disulfanyl)-2(R)-(3,3-dimethylbutanoylamino)propionic acid] was tested. Which IC50 [1] did it give?
Answer: Its IC50 is 1800 nM.

Question: And the “swelling of ear induced by application of the antigen” value (Auricular Edema Model; Compound No. 140: 400 mg/kg intravenously 3 times or 0.3 mg/ear applied to auricle)?
Answer: The value was “inhibited”.

Question: And the “accumulation of eosinophils to auricle induced by application of the antigen” value (Auricular Edema Model; Compound No. 140: 400 mg/kg intravenously 3 times or 0.3 mg/ear applied to auricle, Fig. 1, 400 mg/kg)?
Answer: Its value is “inhibits”.

Question: And the “Ear Swelling Rate (%)” value (Auricular Edema Model; applied to auricle, 0.3 mg/ear, twice, 24 hours after induction)?
Answer: The value was 26.12%.

Question: What about the “Inhibition Rate (%)” value (Auricular Edema Model; swelling of ear, applied to auricle, 0.3 mg/ear, twice) of the same compound?
Answer: The value was 40.3%.
